Experimental data published in patent US9821173B2, “Anti-cancer agents and methods of use” (Case Western Reserve University, priority 2013, dated 2017).
Where “and” joins values, the source holds several entries; their conditions need not be identical. Identical values can stand only once.

Assays:
CEM-C7 = assay: Cell proliferation / cytotoxicity assay; type: cell-based; conditions: cell viability, cell-titer blue, up to 48 hours
Description: HeLa, MCF-7, HCT-116, and CEM-C7 were obtained from the American Type Culture Collection (Manassas, Va., USA). All adherent cell lines were maintained in Dulbecco's modified Eagle's medium (Mediatech) with 100 U/ml penicillin (Invitrogen), 100 μg/ml streptomycin (Invitrogen), 0.25 μg/ml amphotericin B (Invitrogen), and 10% fetal bovine serum (USA Scientific) and incubated at 37° C. with 5% CO2. CEM cells were maintained in RPMI-1640 media supplemented with 100 U/ml penicillin, 100 μg/ml streptomycin, 0.25 μg/ml amphotericin B, and 10% fetal bovine serum and incubated at 37° C. with […].
Cells were plated at a density of 7,000-13,000/well in 200 μl of media overnight in a 96-well plate. Each (phosphine)gold(I)-indole was added to wells in a dose-dependent manner (0.01-100 μM). Cells were treated with compounds for variable time periods (8-48 hours). With adherent cell lines, medium was removed from the wells and then 100 μl of fresh medium was added into each well followed by the addition of 20 μl of cell titer-blue reagent (Promega). Cells were incubated with reagent for 1-4 hrs and the optical density of samples was read at 560 nm using a microplate reader. The background absorbance of dye with media was subtracted from each sample. Cell viability was then normalized against cells treated with DMSO. IC50 values were obtained using a fit of the data to Equation 1: Y=100%/[1+(IC50/Inhibitor)] (1)
where y is the fraction of viable cells, IC50 is the concentration of inhibitor that inhibits 50% cell growth, and Inhibitor is the concentration of compound tested.
The cellular effects of these (phosphine)gold(I) indoles were tested against several cancer cell lines including HeLa (cervical cancer), MCF-7 (breast cancer), HCT-116 (colon cancer), and CEM-C7 (leukemia). The dose-dependency of each modified indole on cell viability was assessed using a cell-titer blue assay as previously described. In these experiments, cells were exposed to variable concentrations of each (phosphine)gold(I) indole (0.01-100 μM) for up to 48 hours and then assessed for viability.
Defining this mechanism of cell death is important as necrosis can cause various side-effects including septic shock and kidney failure that can obviously compromise patient health.

HeLa cells [1] = assay: Measurements of apoptosis, dual parameter FACS with PI and annexin V; type: cell-based; conditions: 50 μM
Description: Cells were plated at 200,000/ml, Au(I)-Indole analogs were added in a dose-dependent fashion for 12-24 hr. Cells were trypsinized and then washed with cold PBS. After discarding the supernatant, a 100 μL solution containing 1× annexin-binding buffer, 5 μl of alexa fluor 488 Annexin V and 1 μg/ml of PI solution was added to each sample. The cells were incubated at room temperature for 15 min. After this incubation period, an additional 400 μl of 1× annexin-binding buffer was added. Cells were analyzed using a band pass filters with wavelengths of 525/40 nm and 620/30 nm with a Beckman Coulter XL flow cytometer.

HeLa cells [2] = assay: Cell cycle analyses (PI staining, flow cytometry); type: cell-based; conditions: for G1 (%) / G2/M (%) / S-Phase (%): 50 μM, 24 hours post-treatment
Description: Cells were plated at a density of 200,000/ml. Au(I)-Indole analogs were then added in a dose-dependent manner for time periods varying from 1 to 3 days. Cells were treated with 0.25% trypsin and harvested by centrifugation. The supernatant was removed and then washed with PBS. After aspiration of PBS, 500 μl of 70% ethanol was added and cells were incubated on ice for 15 minutes followed by centrifugation and the removal of ethanol. One ml of PI staining solution [(10 ml of 0.1 Triton X-100/PBS, 0.4 ml of 500 μg/ml of PI, and 2 mg/ml of DNase-free RNase)] was added to the cell suspension, placed on ice for 30 minutes, and then analyzed using a Beckman Coulter XL flow cytometer with a red filter.
We next analyzed the effects of compounds 3 and 4 on cell-cycle progression using PI staining to measure cellular DNA content. HeLa cells were treated with DMSO.

HeLa cells [3] = conditions: for fold more sensitive to IR exposure than cells treated with IR alone: HeLa pre-treated 24 hour with compound 3 (4 μM) or compound 4 (7 μM)
Description: HeLa cells were plated at a density of 250,000-300,000 cells/mL. After 24 hr cells, the cells were irradiated in a dose dependent manner (0-4 Gy) using a ^137Cs gamma source. After treatment, the cells were trypsinized and plated at a density between 300-4000 cells in 60 mm dishes. Cells were allowed to grow colonies (1 colony≧50 cells) for 10-14 days, stained with 0.25% crystal violet, and manually counted to measure the number of colonies. Survival fractions were normalized against positive controls (colony formation with no radiation) and plotted as the log percent survival versus dose of radiation. Each experiment was performed an average of four (4) times with cells propagated on several different days.
In this case, we measured the effects of combining these (phosphine)gold(I) indoles with ionizing radiation (IR), a widely used therapy used to treat solid tumors. […] After this time frame, media containing the (phosphine)gold(I) indole was removed and replaced with fresh media. The cells were then irradiated in a dose-dependent fashion from 0 to 6 Gy. Cell viability was assessed using a clonogenic assay that measures colony formation and thus accurately defines the cytotoxic effects of IR exposure. […] The initial linear phase is particularly important as this reflects repair of non-lethal damage inflicted by clinically-relevant doses of IR (˜2 Gy).

FLT2 = assay: Kinase inhibition screening (Luceome); type: biochemical, human; conditions: 10 μM
Excerpt: It is well established that dysfunctional and unregulated kinase activity plays significant roles in cancer initiation and progression. […] Inspection of the data provides several interesting observations. […] These inhibitory effects at this concentration are consistent with their measured IC50 values that are also in the μM range (Table 1). In addition, several kinases display overlapping inhibitory responses to both gold(I) compounds. Many of these are of particular interest since they are involved in cancer initiation and/or progression. For example, the Aurora kinase family members, Aurora A and Aurora B, as well as the MARK2 and MARK3 kinases function during mitosis to regulate cell division. These kinases are important therapeutic targets as their activities are often deregulated in many types of cancers. Other kinases such as RPS6KA3 and MLK3 are involved in the MAP kinase and JNK pathways which are also important in cancer progression.

| SMILES | IC50 (CEM-C7) | fold increase in early stage apoptosis compared to DMSO (HeLa cells [1]; 24 hours) | fold increase in late stage apoptosis compared to DMSO (HeLa cells [1]; 24 hours) | Early Apoptotic (%) (HeLa cells [1]; HeLa, 24 hours) | Late Apoptotic (%) (HeLa cells [1]; HeLa, 24 hours) | Live (%) (HeLa cells [1]; HeLa, 24 hours) | Necrotic (%) (HeLa cells [1]; HeLa, 24 hours) | G1 (%) (HeLa cells [2]) | G2/M (%) (HeLa cells [2]) | S-Phase (%) (HeLa cells [2]) | alterations in cell-cycle progression (HeLa cells [2]; over a 24 hour period) | fold more sensitive to IR exposure than cells treated with IR alone (HeLa cells [3]) | dose-modifying factor (HeLa cells [3]; ionizing radiation, HeLa) | fold higher amount of late-stage apoptotic cells compared to compound 3 (HeLa cells [1]; HeLa) | fold higher amount of necrosis compared to compound 3 (HeLa cells [1]; HeLa) | % Inhibition FLT2 (FLT2) |
| --- | --- | --- | --- | --- | --- | --- | --- | --- | --- | --- | --- | --- | --- | --- | --- | --- |
| CC(C)(C)OC(=O)n1ccc2c[c]([Au-][P+](c3ccccc3)(c3ccccc3)c3ccccc3)ccc21 [Compound 3, 5-{Triphenylphosphine aurate(I)}-tert-butyl1H-indole-1-carboxylate] | 19.9 µM | 6 fold | ~10 fold | 8.8% and 8.8 +/− 0.7% | 4.3% and 4.3 +/− 1.8% | 84.4 +/− 3.0% | 2.4 +/− 0.8% | 45.4 +/− 2.1% | 13.0 +/− 2.1% | 41.6 +/− 0.1% | does not cause any significant alterations in cell-cycle progression | ~4 fold | 4 | – | – | – |
| CC(C)(C)OC(=O)n1ccc2c[c]([Au-][P+](C3CCCCC3)(C3CCCCC3)C3CCCCC3)ccc21 [Compound 4, 5-{Tricyclohexylphosphine aurate(I)}-tert-butyl1H-indole-1-carboxylate] | 9.7 µM | – | – | 5.3% and 5.3 +/− 1.1% | 8.1% and 8.1 +/− 1.8% | 68.4 +/− 0.8% | 18.8 +/− 2.5% | 60.3+/−3.2% and 60.3 +/− 0.8% | 11.4 +/− 4.9% | 28.3 +/− 1.3% | – | ~4 fold | – | 2 fold | ~9 fold | 0% |
